Experimental data: article PMC4054929 (Bioorganic & medicinal chemistry, 2014)
Several values for one entry are separate records, joined by “and”; a condition that tells them apart may be missing. Equal entries are not always repeated.

Columns and labels:
PDE10A [1] = biological target: PDE10A (Rattus norvegicus, UniProt Q9QYJ6); details: for Distribution, blood, MP-10 block / Distribution, cerebellum, MP-10 block / Distribution, fat, MP-10 block / Distribution, heart, MP-10 block / Distribution, kidney, MP-10 block / Distribution, liver, MP-10 block / Distribution, lung, MP-10 block / Distribution, muscle, MP-10 block / Distribution, striatum, MP-10 block / Distribution, total brain, MP-10 block: rats pretreated with MP-10 2.0 mg/kg 5 min prior to tracer; for striatal binding after blocking dose of MP-10: MP-10 2 mg/kg i.v. 5 min prior to tracer, p < 0.05
Sequence of PDE10A (Rattus norvegicus, UniProt Q9QYJ6) (Q9QYJ6 whole entry): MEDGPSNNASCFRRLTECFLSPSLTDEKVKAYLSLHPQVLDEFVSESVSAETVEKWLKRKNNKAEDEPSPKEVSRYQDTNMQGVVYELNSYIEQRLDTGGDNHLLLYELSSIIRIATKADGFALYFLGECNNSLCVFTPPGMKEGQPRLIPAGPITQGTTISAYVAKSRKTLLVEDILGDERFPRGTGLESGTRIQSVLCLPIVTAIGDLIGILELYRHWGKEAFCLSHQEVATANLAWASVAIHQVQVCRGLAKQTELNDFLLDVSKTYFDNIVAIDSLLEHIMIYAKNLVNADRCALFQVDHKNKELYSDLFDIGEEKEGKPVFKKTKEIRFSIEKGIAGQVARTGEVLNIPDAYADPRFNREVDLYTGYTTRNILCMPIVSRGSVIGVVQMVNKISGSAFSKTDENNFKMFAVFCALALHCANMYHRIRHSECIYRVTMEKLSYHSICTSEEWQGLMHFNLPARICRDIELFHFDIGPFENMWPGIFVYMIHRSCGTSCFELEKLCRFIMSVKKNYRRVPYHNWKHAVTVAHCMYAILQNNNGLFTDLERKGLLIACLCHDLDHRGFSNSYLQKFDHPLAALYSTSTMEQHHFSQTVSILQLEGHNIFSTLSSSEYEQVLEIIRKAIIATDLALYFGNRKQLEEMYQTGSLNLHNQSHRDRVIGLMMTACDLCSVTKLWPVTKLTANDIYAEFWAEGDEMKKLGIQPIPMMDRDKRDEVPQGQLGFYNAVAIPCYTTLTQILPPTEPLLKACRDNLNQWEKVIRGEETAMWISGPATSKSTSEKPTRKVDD

[2] = In vivo biodistribution and regional brain uptake in rats; details: for Biodistribution, blood / Biodistribution, cerebellum / Biodistribution, fat / Biodistribution, heart / Biodistribution, kidney / Biodistribution, liver / Biodistribution, lung / Biodistribution, muscle / Biodistribution, striatum / Biodistribution, total brain: male SD rats, i.v.
PDE10A [3] = details: NHP brain

SMILES: Cn1cc(-c2ccncc2)c(-c2ccc(OCc3nc4ccccc4cc3O[11CH3])cc2)n1 [[^11C]1, 3-(methoxy-^11C)-2-((4-(1-methyl-4-(pyridin-4-yl)-1H-pyrazol-3-yl)phenoxy)methyl)quinoline]
- Distribution, blood, MP-10 block (PDE10A [1]; 30 min p.i.): 0.407 ± 0.026 %ID/gram
- Distribution, cerebellum, MP-10 block (PDE10A [1]; 30 min p.i.): 0.119 ± 0.006 %ID/gram
- Distribution, fat, MP-10 block (PDE10A [1]; 30 min p.i.): 1.353 ± 0.202 %ID/gram
- Distribution, heart, MP-10 block (PDE10A [1]; 30 min p.i.): 0.340 ± 0.036 %ID/gram
- Distribution, kidney, MP-10 block (PDE10A [1]; 30 min p.i.): 1.523 ± 0.162 %ID/gram
- Distribution, liver, MP-10 block (PDE10A [1]; 30 min p.i.): 5.781 ± 0.696 %ID/gram
- Distribution, lung, MP-10 block (PDE10A [1]; 30 min p.i.): 0.404 ± 0.024 %ID/gram
- Distribution, muscle, MP-10 block (PDE10A [1]; 30 min p.i.): 0.257 ± 0.026 %ID/gram
- Distribution, striatum, MP-10 block (PDE10A [1]; 30 min p.i.): 0.294 ± 0.013 %ID/gram
- Distribution, total brain, MP-10 block (PDE10A [1]; 30 min p.i.): 0.128 ± 0.003 %ID/gram
- decrease of striatum: cerebellum ratio by MP-10 pretreatment (PDE10A [1]; rats, MP-10 2 mg/kg 5 min prior to tracer, 30 min p.i.): 50%
- striatal binding after blocking dose of MP-10 (PDE10A [1]; rats): significant reduction
- Biodistribution, blood ([2]; 5 min p.i.): 0.679 ± 0.116 %ID/gram
- Biodistribution, cerebellum ([2]; 5 min p.i.): 0.229 ± 0.039 %ID/gram
- Biodistribution, fat ([2]; 5 min p.i.): 0.935 ± 0.462 %ID/gram
- Biodistribution, heart ([2]; 5 min p.i.): 0.733 ± 0.039 %ID/gram
- Biodistribution, kidney ([2]; 5 min p.i.): 4.354 ± 0.473 %ID/gram
- Biodistribution, liver ([2]; 5 min p.i.): 11.005 ± 0.758 %ID/gram
- Biodistribution, lung ([2]; 5 min p.i.): 1.602 ± 0.509 %ID/gram
- Biodistribution, muscle ([2]; 5 min p.i.): 0.412 ± 0.064 %ID/gram
- Biodistribution, striatum ([2]; 5 min p.i.): 0.488 ± 0.101 ^a %ID/gram
- Biodistribution, total brain ([2]; 5 min p.i.): 0.231 ± 0.038 %ID/gram
- Biodistribution, blood ([2]; 30 min p.i. (control)): 0.321 ± 0.021 %ID/gram
- Biodistribution, cerebellum ([2]; 30 min p.i. (control)): 0.097 ± 0.016 %ID/gram
- Biodistribution, fat ([2]; 30 min p.i. (control)): 0.851 ± 0.314 %ID/gram
- Biodistribution, heart ([2]; 30 min p.i. (control)): 0.296 ± 0.038 %ID/gram
- Biodistribution, kidney ([2]; 30 min p.i. (control)): 1.647 ± 0.459 %ID/gram
- Biodistribution, liver ([2]; 30 min p.i. (control)): 7.345 ± 1.472 %ID/gram
- Biodistribution, lung ([2]; 30 min p.i. (control)): 0.408 ± 0.083 %ID/gram
- Biodistribution, muscle ([2]; 30 min p.i. (control)): 0.244 ± 0.073 %ID/gram
- Biodistribution, striatum ([2]; 30 min p.i. (control)): 0.452 ± 0.086 ^a %ID/gram and 0.452 ± 0.086 %ID/gram
- Biodistribution, total brain ([2]; 30 min p.i. (control)): 0.133 ± 0.024 %ID/gram
- Biodistribution, blood ([2]; 60 min p.i.): 0.275 ± 0.028 %ID/gram
- Biodistribution, cerebellum ([2]; 60 min p.i.): 0.064 ± 0.006 %ID/gram
- Biodistribution, fat ([2]; 60 min p.i.): 0.500 ± 0.087 %ID/gram
- Biodistribution, heart ([2]; 60 min p.i.): 0.199 ± 0.013 %ID/gram
- Biodistribution, kidney ([2]; 60 min p.i.): 1.275 ± 0.141 %ID/gram
- Biodistribution, liver ([2]; 60 min p.i.): 6.398 ± 0.945 %ID/gram
- Biodistribution, lung ([2]; 60 min p.i.): 0.299 ± 0.042 %ID/gram
- Biodistribution, muscle ([2]; 60 min p.i.): 0.142 ± 0.014 %ID/gram
- Biodistribution, striatum ([2]; 60 min p.i.): 0.380 ± 0.048 ^a %ID/gram
- Biodistribution, total brain ([2]; 60 min p.i.): 0.095 ± 0.008 %ID/gram
- blood–brain-barrier penetration (PDE10A [3]): readily penetrate the blood–brain-barrier

SMILES: Cn1cc(-c2ccncc2)c(-c2ccc(OCc3cc(O[11CH3])c4ccccc4n3)cc2)n1 [[^11C]2, 4-(methoxy-^11C)-2-((4-(1-methyl-4-(pyridin-4-yl)-1H-pyrazol-3-yl)phenoxy)methyl)quinoline]
- Distribution, blood, MP-10 block (PDE10A [1]; 30 min p.i.): 0.343 ± 0.007 %ID/gram
- Distribution, cerebellum, MP-10 block (PDE10A [1]; 30 min p.i.): 0.112 ± 0.011 %ID/gram
- Distribution, fat, MP-10 block (PDE10A [1]; 30 min p.i.): 0.697 ± 0.219 %ID/gram
- Distribution, heart, MP-10 block (PDE10A [1]; 30 min p.i.): 0.310 ± 0.040 %ID/gram
- Distribution, kidney, MP-10 block (PDE10A [1]; 30 min p.i.): 1.072 ± 0.069 %ID/gram
- Distribution, liver, MP-10 block (PDE10A [1]; 30 min p.i.): 4.723 ± 0.489 %ID/gram
- Distribution, lung, MP-10 block (PDE10A [1]; 30 min p.i.): 0.362 ± 0.021 %ID/gram
- Distribution, muscle, MP-10 block (PDE10A [1]; 30 min p.i.): 0.224 ± 0.012 %ID/gram
- Distribution, striatum, MP-10 block (PDE10A [1]; 30 min p.i.): 0.175 ± 0.022 %ID/gram
- Distribution, total brain, MP-10 block (PDE10A [1]; 30 min p.i.): 0.114 ± 0.007 %ID/gram
- striatal binding after blocking dose of MP-10 (PDE10A [1]; rats): significant reduction
- striatum: cerebellum ratio ([2]; SD rats, 60 min p.i.): 2.5 fold
- Biodistribution, blood ([2]; 5 min p.i.): 0.268 ± 0.053 %ID/gram
- Biodistribution, cerebellum ([2]; 5 min p.i.): 0.215 ± 0.031 %ID/gram
- Biodistribution, fat ([2]; 5 min p.i.): 0.242 ± 0.065 %ID/gram
- Biodistribution, heart ([2]; 5 min p.i.): 0.464 ± 0.023 %ID/gram
- Biodistribution, kidney ([2]; 5 min p.i.): 2.340 ± 0.295 %ID/gram
- Biodistribution, liver ([2]; 5 min p.i.): 7.080 ± 0.435 %ID/gram
- Biodistribution, lung ([2]; 5 min p.i.): 0.890 ± 0.206 %ID/gram
- Biodistribution, muscle ([2]; 5 min p.i.): 0.258 ± 0.035 %ID/gram
- Biodistribution, striatum ([2]; 5 min p.i.): 0.352 ± 0.052 ^a %ID/gram
- Biodistribution, total brain ([2]; 5 min p.i.): 0.210 ± 0.035 %ID/gram
- Biodistribution, blood ([2]; 30 min p.i. (control)): 0.192 ± 0.075 %ID/gram
- Biodistribution, cerebellum ([2]; 30 min p.i. (control)): 0.066 ± 0.023 %ID/gram
- Biodistribution, fat ([2]; 30 min p.i. (control)): 0.371 ± 0.091 %ID/gram
- Biodistribution, heart ([2]; 30 min p.i. (control)): 0.187 ± 0.042 %ID/gram
- Biodistribution, kidney ([2]; 30 min p.i. (control)): 1.294 ± 0.268 %ID/gram
- Biodistribution, liver ([2]; 30 min p.i. (control)): 10.085 ± 1.972 %ID/gram
- Biodistribution, lung ([2]; 30 min p.i. (control)): 0.233 ± 0.045 %ID/gram
- Biodistribution, muscle ([2]; 30 min p.i. (control)): 0.133 ± 0.035 %ID/gram
- Biodistribution, striatum ([2]; 30 min p.i. (control)): 0.230 ± 0.030 ^a %ID/gram and 0.230 ± 0.030 %ID/gram
- Biodistribution, total brain ([2]; 30 min p.i. (control)): 0.087 ± 0.016 %ID/gram
- Biodistribution, blood ([2]; 60 min p.i.): 0.152 ± 0.030 %ID/gram
- Biodistribution, cerebellum ([2]; 60 min p.i.): 0.046 ± 0.014 %ID/gram
- Biodistribution, fat ([2]; 60 min p.i.): 0.278 ± 0.040 %ID/gram
- Biodistribution, heart ([2]; 60 min p.i.): 0.121 ± 0.025 %ID/gram
- Biodistribution, kidney ([2]; 60 min p.i.): 0.758 ± 0.112 %ID/gram
- Biodistribution, lung ([2]; 60 min p.i.): 0.163 ± 0.027 %ID/gram
- Biodistribution, muscle ([2]; 60 min p.i.): 0.084 ± 0.013 %ID/gram
- Biodistribution, striatum ([2]; 60 min p.i.): 0.201 ± 0.037 ^a %ID/gram
- Biodistribution, total brain ([2]; 60 min p.i.): 0.057 ± 0.008 %ID/gram
- blood–brain-barrier penetration (PDE10A [3]): readily penetrate the blood–brain-barrier
